Converted amounts (≈) assume the structure as drawn. Read-outs that look alike come from different tables or passages of the source.
How the values were obtained:
[1] = Cytotoxicity assay, WST-8; conditions: human, HepG2 cells, CC50 (μg/mL)
[2] = tested on: Staphylococcus aureus strain LMG15975; experiment: MIC by broth micro-dilution, AM3/PBS 1:1; type: cell-based
Description: (§1) At first (Table 1), MIC is determined by broth micro-dilution method. The test medium is Antibiotic Medium 3 (AM3; Difco Ltd) mixed with Phosphate Buffered Saline (PBS) in proportions 1:1. Selected MIC values are verified using cation-adjusted Mueller Hinton Broth (MHB; BD). Cell concentration of tested pathogen is adjusted to between 3 and 5×10^5 cells per ml. To verify cell concentration of tested pathogen, viable cell counts are performed directly after each MIC-test by dilution method with PBS as a dilution solvent. Cells are counted on the agar plates with 50% strength Vegetable Peptone Broth (50% VPB; Oxoid Ltd) after 16 to 20 h of incubation at 37° C.
(§2) Cells of pathogen suspended in test medium are distributed to the wells and the plates are incubated for 16 to 20 h at 37° C. Negative controls are wells with the test medium only and positive controls are wells with the pathogen in test medium. The MIC is defined as the lowest concentration of each compound with no visible growth of pathogen.
Example compounds of formula I were examined for antibacterial activity against the Gram-positive bacterium Staphylococcus aureus strain LMG15975 using the above described method (Table 1).

[3] = tested on: A. baumannii; experiment: MIC by broth micro-dilution; type: cell-based; conditions: Acinetobacter baumannii, A. baumannii (G−), Table 2; read-out: MIC (μg/ml) A. baumannii
Description: as §1, §2

[4] = tested on: S. epidermidis; experiment: Antimicrobial Susceptibility Test by Broth Microdilution, M07-A9 CLSI; type: cell-based; conditions: Staphylococcus epidermidis
[5] = tested on: E. faecalis; experiment: as above; type: cell-based; conditions: Enterococcus faecalis
[6] = tested on: E. faecium; experiment: as above; type: cell-based; conditions: Enterococcus faecium; E. faecium 7, Vancomycin-resistant, Table 5; read-out: MIC
[7] = tested on: S. aureus; experiment: as above; type: cell-based; conditions: Staphylococcus aureus
[8] = in vitro; conditions: human, CC50 (μg/mL)
[9] = cited from earlier work
[10] = tested on: Bacillus cereus; experiment: MIC by broth micro-dilution; type: cell-based; conditions: Table 4, read-out: MIC (μg/ml) B. cereus
Description: as §1, §2

[11] = tested on: mupirocin-resistant strains of Staphylococcus aureus; experiment: MIC against mupirocin-resistant strains; type: cell-based; conditions: Staphylococcus aureus; all 4 strains (V55, V86, V308, V321); read-out: MIC values for mupirocin
Description: as §1, §2

[12] = LMG15975, S. aureus LMG15975, Table 1, read-out: MIC
[13] = LMG15975, S. aureus LMG15975, Table 1, read-out: MIC (μg/ml)
[14] = LMG15975, S. aureus (G+), Table 2, read-out: MIC (μg/ml) S. aureus
[15] = S. epidermis RO7, Methicillin-sensitive, Table 5
[16] = S. epidermis Staph 1, Methicillin-resistant
[17] = S. epidermis TA12, Methicillin-resistant, Table 5
[18] = E. faecalis 14, Vancomycin-resistant
[19] = E. faecalis 24, Vancomycin-sensitive, Table 5
[20] = ATCC29213, S. aureus ATCC29213, QC strain, Table 5
[21] = S. aureus 7280, Methicillin-resistant
[22] = S. aureus MO17, Methicillin-sensitive, Table 5
[23] = S. aureus PICI, Methicillin-resistant, Table 5
[24] = LMG15975, S. aureus LMG 15975 (SLU), Methicillin-resistant, Table 5, read-out: MIC (μg/mL)

| Structure (SMILES) | MIC [2, 12] [µM] | MIC [2, 13] [µg/mL] | CC50 at 48 h ([1]; HepG2, 48 hours, Table 1) [µM] | other results |
| --- | --- | --- | --- | --- |
| COCCCCCCC1CC(O)=C(C(=O)CC2CC2)C(=O)O1 (stereo not shown) [Ex. 25, 3-(2-cyclopropylacetyl)-4-hydroxy-6-(6-methoxyhexyl)-5,6-dihydro-2H-pyran-2-one] | > 64 | > 20 | – | – |
| CCCC(=O)C1=C(O)CC(CC2CCCC2)OC1=O (stereo not shown) [Ex. 22, 3-butyryl-6-(cyclopentylmethyl)-4-hydroxy-5,6-dihydro-2H-pyran-2-one] | 22 to 45 | 6 to 12 | – | – |
| N#CCCCCCCCC1CC(O)=C(C(=O)CC2CCCCC2)C(=O)O1 (stereo not shown) [Ex. 28, 8-(5-(2-cyclohexylacetyl)-4-hydroxy-6-oxo-3,6-dihydro-2H-pyran-2-yl)octanenitrile] | > 55 | > 20 | – | – |
| Nc1nc2c(ncn2COCCO)c(=O)[nH]1 [Acyclovir] | – | – | – | absorption in man (%) ([9]; reference markers for Caco-2 assay): 30% |
| OC[C@@H](O)[C@@H](O)[C@H](O)[C@H](O)CO [Mannitol] | – | – | – | absorption in man (%) ([9]; in vivo): 16% |
| CCCC(=O)C1=C(O)CC(CC(C)CCC=C(C)C)OC1=O (stereo not shown) [Ex. 21, 3-butyryl-6-(2,6-dimethylhept-5-enyl)-4-hydroxy-5,6-dihydro-2H-pyran-2-one] | 6.5 to 9.7 | 2 to 3 | – | – |
| CN(Cc1cnc2nc(N)nc(N)c2n1)c1ccc(C(=O)N[C@@H](CCC(=O)O)C(=O)O)cc1 [Methotrexate] | – | – | – | absorption in man (%) ([9]; in vivo): 20% |
| N#CCCCCCCCC1CC(O)=C(C(=O)CC2CCOCC2)C(=O)O1 (stereo not shown) [Ex. 27, 8-(4-hydroxy-6-oxo-5-(2-(tetrahydro-2H-pyran-4-yl)acetyl)-3,6-dihydro-2H-pyran-2-yl)octanenitrile] | 5.5 to 14 | 2 to 5 | – | – |
| COCCCCCCC1CC(O)=C(C(=O)CC2CCCC2)C(=O)O1 (stereo not shown) [Ex. 23, 3-(2-cyclopentylacetyl)-4-hydroxy-6-(6-methoxyhexyl)-5,6-dihydro-2H-pyran-2-one] | 29 to 59 | 10 to 20 | – | – |
| CCCCCCCCC1CC(O)=C(C(C)=O)C(=O)O1 (stereo not shown) [Ex. 7, 3-acetyl-4-hydroxy-6-octyl-5,6-dihydro-2H-pyran-2-one] | 9.3 | 2.5 | 65 | – |
| CCCC(=O)C1=C(O)CC(CCCCCCCOC)OC1=O (stereo not shown) [Ex. 20, 3-butyryl-4-hydroxy-6-(7-methoxyheptyl)-5,6-dihydro-2H-pyran-2-one] | 64 to 96 | 20 to 30 | 80 | – |
| CCCC(=O)C1=C(O)CC(CCCCCCCC#N)OC1=O (stereo not shown) [Ex. 19, 8-(5-butyryl-4-hydroxy-6-oxo-3,6-dihydro-2H-pyran-2-yl)octanenitrile] | 133 to 166 | 40 to 50 | – | CC50 at 48 h [8]: > 100 µM |
| CCCCCCCCC[C@@H]1CC(O)=C(C(=O)CCC)C(=O)O1 [Ex. 2A, (R)-3-butyryl-4-hydroxy-6-nonyl-5,6-dihydro-2H-pyran-2-one] | 3.2 to 6.4 | 1 to 2 | – | CC50 at 48 h [8]: 27 µM |
| CCCCCCCCCC1CC(O)=C(C(=O)CCOC)C(=O)O1 (stereo not shown) [Ex. 24, 4-hydroxy-3-(3-methoxypropanoyl)-6-nonyl-5,6-dihydro-2H-pyran-2-one] | 6.1 to 15 | 2 to 5 | – | – |
| C/C(=C\C(=O)OCCCCCCCCC(=O)O)C[C@@H]1OC[C@H](C[C@@H]2O[C@H]2[C@@H](C)[C@H](C)O)[C@@H](O)[C@H]1O [mupirocin, reference compound] | – | – | – | MIC [11]: > 256 µg/mL |

Continued, in another order:

| MIC [2, 12] [µM] | MIC [2, 13] [µg/mL] | Structure (SMILES) | CC50 at 48 h ([1]; HepG2, 48 hours, Table 1) [µM] | other results |
| --- | --- | --- | --- | --- |
| 0.6 to 1.2 | 0.2 to 0.4 | CCCCCCCCCC1CC(O)=C(C(=O)CC(C)C)C(=O)O1 (stereo not shown) [Ex. 15, 4-hydroxy-3-(3-methylbutanoyl)-6-nonyl-5,6-dihydro-2H-pyran-2-one] | 21 | – |
| 2.1 to 4.3 | 1.5 to 2.5 | CCCCCCCCCC1CC(O)=C(C(C)=O)C(=O)O1 (stereo not shown) [Ex. 9, 3-acetyl-4-hydroxy-6-nonyl-5,6-dihydro-2H-pyran-2-one] | 71 | MIC [3]: > 64 µg/mL; MIC [2, 14]: 1.5 to 2.5 µg/mL |
| 1.8 to 2.4 | 0.6 to 0.8 | CCCCCCCCCC1CC(O)=C(C(=O)CCCCC)C(=O)O1 (stereo not shown) [Ex. 18, 3-hexanoyl-4-hydroxy-6-nonyl-5,6-dihydro-2H-pyran-2-one] | 15 | MIC [3]: 4 to 8 µg/mL (≈ 11.8 to 23.6 µM); MIC [2, 14]: 0.6 to 0.8 µg/mL |
| 0.3 to 0.6 | 0.1 to 0.2 | CCCCCCCCCCCC1CC(O)=C(C(=O)CCC)C(=O)O1 (stereo not shown) [Ex. 16, 3-butyryl-4-hydroxy-6-undecyl-5,6-dihydro-2H-pyran-2-one] | – | MIC [4, 15]: 0.5 µg/mL (≈ 1.48 µM); MIC [4, 16]: 0.5 µg/mL (≈ 1.48 µM); MIC [4, 17]: 1 µg/mL (≈ 2.95 µM); MIC [5, 18]: 1 µg/mL (≈ 2.95 µM); MIC [5, 19]: 1 µg/mL (≈ 2.95 µM); MIC [6]: 2 µg/mL (≈ 5.91 µM); MIC [7, 20]: 4 µg/mL (≈ 11.8 µM); MIC [7, 21]: 8 µg/mL (≈ 23.6 µM); MIC [7, 22]: 4 µg/mL (≈ 11.8 µM); MIC [7, 23]: 4 µg/mL (≈ 11.8 µM); CC50 at 48 h [8]: 19 µM; MIC [3]: < 4 µg/mL; MIC [2, 14]: 0.1 to 0.2 µg/mL; MIC [2, 24]: 0.1 to 0.2 µg/mL |
| 2.6 to 3.9 | 0.8 to 1.2 | CCCCCCC/C=C/C1CC(O)=C(C(=O)CCC)C(=O)O1 (stereo not shown) [Ex. 4, (E)-3-butyryl-6-(non-1-en-1-yl)-4-hydroxy-5,6-dihydro-2H-pyran-2-one] | – | CC50 at 48 h [8]: 36 µM |
| 1.3 to 1.9 | 0.4 to 0.6 | CCCCCCCCC[C@H]1CC(O)=C(C(=O)CCC)C(=O)O1 [Ex. 2B, (S)-3-butyryl-4-hydroxy-6-nonyl-5,6-dihydro-2H-pyran-2-one] | – | CC50 at 48 h [8]: 25 µM |
| 1.4 to 2.7 | 0.5 to 1 | CCCCCCCCCC1CC(O)=C(C(=O)CC2CCOCC2)C(=O)O1 (stereo not shown) [Ex. 26, 4-hydroxy-6-nonyl-3-(2-(tetrahydro-2H-pyran-4-yl)acetyl)-5,6-dihydro-2H-pyran-2-one] | – | – |
| 1.9 to 2.6 | 0.6 to 0.8 | CCCCCCCCCCC1CC(O)=C(C(=O)CCC)C(=O)O1 (stereo not shown) [Ex. 12, 3-butyryl-6-decyl-4-hydroxy-5,6-dihydro-2H-pyran-2-one] | 25 | MIC [3]: 8 to 16 µg/mL (≈ 24.7 to 49.3 µM); MIC [2, 14]: 0.6 to 0.8 µg/mL |
| 1.2 to 1.8 | 0.4 to 0.6 | CCCCCCCCCCC1CC(O)=C(C(=O)CCCC)C(=O)O1 (stereo not shown) [Ex. 3, 6-decyl-4-hydroxy-3-pentanoyl-5,6-dihydro-2H-pyran-2-one] | 13 | – |
| 2.2 | 0.65 | CCCCCCCCCC1CC(O)=C(C(=O)CC)C(=O)O1 (stereo not shown) [Ex. 5, 4-hydroxy-6-nonyl-3-propionyl-5,6-dihydro-2H-pyran-2-one] | 50 | MIC [10]: ≤ 1 µg/mL; MIC [3]: 32 to 48 µg/mL (≈ 108 to 162 µM); MIC [2, 14]: 0.7 µg/mL; MIC ([2]; LMG15975, Table 4, read-out: MIC (μg/ml) S. aureus): 0.7 µg/mL |
| 2.7 to 5.1 | 0.8 to 1.5 | CCCCCCCCC1CC(O)=C(C(=O)CCC)C(=O)O1 (stereo not shown) [Ex. 13, 3-butyryl-4-hydroxy-6-octyl-5,6-dihydro-2H-pyran-2-one] | 30 | MIC [3]: 24 to 32 µg/mL (≈ 81 to 108 µM); MIC [2, 14]: 0.8 to 1.5 µg/mL |
| 4.3 | 1.2 | CCCCCCCCC1CC(O)=C(C(=O)CC)C(=O)O1 (stereo not shown) [Ex. 6, 4-hydroxy-6-octyl-3-propionyl-5,6-dihydro-2H-pyran-2-one] | 55 | – |
| 2.7 to 4 | 0.8 to 1.2 | CCCCCCCCCCC1CC(O)=C(C(C)=O)C(=O)O1 (stereo not shown) [Ex. 11, 3-acetyl-6-decyl-4-hydroxy-5,6-dihydro-2H-pyran-2-one] | 40 | – |
| 0.3 to 0.6 | 0.1 to 0.2 | CCCCCCCCCCCC1CC(O)=C(C(=O)CCCC)C(=O)O1 (stereo not shown) [Ex. 17, 4-hydroxy-3-pentanoyl-6-undecyl-5,6-dihydro-2H-pyran-2-one] | 12 | MIC [4, 15]: 0.5 µg/mL (≈ 1.42 µM); MIC [4, 16]: 0.5 µg/mL (≈ 1.42 µM); MIC [4, 17]: 0.5 µg/mL (≈ 1.42 µM); MIC [5, 18]: 1 µg/mL (≈ 2.84 µM); MIC [5, 19]: 1 µg/mL (≈ 2.84 µM); MIC [6]: 1 µg/mL (≈ 2.84 µM); MIC [7, 20]: 16 µg/mL (≈ 45.4 µM); MIC [7, 21]: 8 µg/mL (≈ 22.7 µM); MIC [7, 22]: 4 µg/mL (≈ 11.3 µM); MIC [7, 23]: 8 µg/mL (≈ 22.7 µM); MIC [10]: ≤ 1 µg/mL; CC50 at 48 h ([1]; HepG2, Table 5): 12 µM; MIC [2, 24]: 0.1 to 0.2 µg/mL |

Source: patent publication US10471043B2, “Compounds and methods of treating bacterial infections” (ULTUPHARMA AB, priority 2015, dated 2019)
